According to ChEMBL document CHEMBL1136426, “Synthesis and collateral dilator activity of nitroxyalkylamides having direct or latent sulfhydryl moieties” (2003):

Key:
[1] = system: Canis familiaris; assay: Maximum collateral index in anesthetized dog at the dose of 0.03 mg/kg, i.v.; assay type: functional, Canis lupus familiaris; conditions: route intravenous
[2] = system: Canis familiaris; assay: Collateral index in anesthetized dog at the dose of 0.03 mg/kg, i.v. after 60 minutes of administration; assay type: functional, Canis lupus familiaris; conditions: route intravenous
[3] = system: Canis familiaris; assay: Maximum […] was measured in anesthetized dog as percent at the dose of 0.03 mg/kg, i.v.; assay type: functional, Canis lupus familiaris; conditions: route intravenous
[4] = organism: Canis familiaris; assay: Ratio of the CIAUC value to that of nitroglycerin (NTG ratio); assay type: functional, Canis lupus familiaris
[5] = system: Canis familiaris; assay: Collateral index in anesthetized dog at the dose of 0.01 mg/kg, i.v. after 60 minutes of administration; assay type: functional, Canis lupus familiaris; conditions: route intravenous
[6] = system: Canis familiaris; assay: Maximum […] was measured in anesthetized dog as percent at the dose of 0.01 mg/kg, i.v.; assay type: functional, Canis lupus familiaris; conditions: route intravenous
[7] = system: Canis familiaris; assay: Maximum collateral index in anesthetized dog at the dose of 0.01 mg/kg, i.v.; assay type: functional, Canis lupus familiaris; conditions: route intravenous
[8] = Nitroglycerin ratio to that was measured; assay type: functional

SMILES | Max collateral index [1] | Collateral index [2] | Max hypotension [3] [%] | NG ratio [4] | Collateral index [5] | Max hypotension [6] [%] | Max collateral index [7] | NG ratio [8]
O=C1N[C@@H](C(=O)NCCO[N+](=O)[O-])CS1 | 14 | 11 | -8 | 0.8 |  |  |  | 
C[C@H](CO[N+](=O)[O-])NC(=O)[C@H]1CSC(=O)N1 | 6 | 5 | -3 | 0.4 |  |  |  | 
CC(=O)N[C@@H](CSC(=O)c1cccnc1)C(=O)NCCO[N+](=O)[O-] |  |  |  | 1.1 | 9 | -24 | 20 | 
O=C1NC(C(=O)NCCO[N+](=O)[O-])C(c2cccc3ccccc23)S1 (centres undefined) |  |  |  |  | 9 | -2 | 9 | 0.5
CC(=O)N[C@@H](CSC(=O)C(C)(C)C)C(=O)NCCO[N+](=O)[O-] |  |  |  | 2.5 | 8 | -23 | 45 | 
CCCC[C@@H](CO[N+](=O)[O-])NC(=O)[C@@H]1CSC(=O)N1 | 21 | 17 | -4 | 1.6 |  |  |  | 
O=C1NC(C(=O)NCCO[N+](=O)[O-])C(c2cccs2)S1 (centres undefined) |  |  |  | 0.5 | 3 | 0 | 8 | 
O=C1NC(C(=O)NCCO[N+](=O)[O-])C(Cc2ccccc2)S1 (centres undefined) |  |  |  | 1 | 7 | -3 | 12 | 
C[C@H](CO[N+](=O)[O-])NC(=O)[C@@H]1CSC(=O)N1 | 12 | 12 | -4 | 0.9 |  |  |  | 
O=C1N[C@H](C(=O)NCCO[N+](=O)[O-])CS1 |  |  |  | 1.9 | 16 | -8 | 23 | 
CC(=O)N[C@@H](CSC(=O)c1ccccc1)C(=O)NCCO[N+](=O)[O-] |  |  |  | 2.1 | 5 | -28 | 49 | 
O=C1N[C@H](C(=O)NCCCCO[N+](=O)[O-])CS1 |  |  |  | 0 | 0 | 0 | 2 | 
C[C@@H]1SC(=O)N[C@@H]1C(=O)NCCO[N+](=O)[O-] |  |  |  | 0.5 | 4 | -2 | 9 | 
C[C@@H](CO[N+](=O)[O-])NC(=O)[C@@H]1CSC(=O)N1 | 16 | 15 | -5 | 1.1 |  |  |  | 
CC(=O)N[C@@H](CSC(=O)OC(C)(C)C)C(=O)NCCO[N+](=O)[O-] |  |  |  | 0.8 | 11 | -8 | 21 | 
O=C1N[C@H](C(=O)NCCCO[N+](=O)[O-])CS1 | 4 | 6 | 0 | 0.1 |  |  |  | 

SMILES | Max collateral index [1] | Collateral index [2] | Max hypotension [3] [%] | NG ratio [4] | Collateral index [5] | Max hypotension [6] [%] | Max collateral index [7] | NG ratio [8]
O=[N+]([O-])OCC(CO[N+](=O)[O-])O[N+](=O)[O-] [NITROGLYCERIN] | 33 | 4 | -55 | 1 |  |  |  | 
CCC[C@@H](CO[N+](=O)[O-])NC(=O)[C@@H]1CSC(=O)N1 | 18 | 17 | -7 | 1.3 |  |  |  | 
O=C(N[C@@H](CS)C(=O)NCCO[N+](=O)[O-])c1cccnc1 |  |  |  | 0 | 0 | -3 | 2 | 
CC(=O)N[C@@H](CSC(=O)OCC(C)C)C(=O)NCCO[N+](=O)[O-] |  |  |  | 1.3 | 6 | -12 | 25 | 
O=C1NC(C(=O)NCCO[N+](=O)[O-])C(c2ccccc2)S1 (centres undefined) | 18 | 9 | -6 | 1 |  |  |  | 
CCOC(=O)SC[C@H](NC(C)=O)C(=O)NCCO[N+](=O)[O-] |  |  |  | 2.4 | 16 | -18 | 39 | 
CC(=O)N[C@@H](CS)C(=O)NCCO[N+](=O)[O-] |  |  |  | 1.9 | 9 | -52 | 39 | 
CC(=O)N[C@@H](CSC(C)=O)C(=O)NCCO[N+](=O)[O-] |  |  |  | 2 | 6 | -44 | 52 | 
CC(CNC(=O)[C@@H]1CSC(=O)N1)O[N+](=O)[O-] (some centres undefined) |  |  |  | 0 | 0 | 0 | 0 | 
CC1(C)SC(=O)N[C@@H]1C(=O)NCCO[N+](=O)[O-] | 9 | 8 | -2 | 0.6 |  |  |  | 
O=C1NC(C(=O)NCCO[N+](=O)[O-])C(c2cccnc2)S1 (centres undefined) |  |  |  |  | 0 | -4 | 2 | 0.1
CC[C@@H](CO[N+](=O)[O-])NC(=O)[C@@H]1CSC(=O)N1 | 7 | 7 | -1 | 0.5 |  |  |  | 
CC(C)C(=O)N[C@@H](CSC(=O)C(C)C)C(=O)NCCO[N+](=O)[O-] |  |  |  | 1.5 | 9 | -14 | 25 | 
O=C1NC(C(=O)NCCO[N+](=O)[O-])C(c2ccco2)S1 (centres undefined) | 6 | 3 | -3 | 0.4 |  |  |  | 
C[C@@H](CO[N+](=O)[O-])NC(=O)[C@H]1CSC(=O)N1 | 5 | 3 | -1 | 0.3 |  |  |  | 
